In patent US20250136606A1, “MODULATORS OF TRPML, THEIR COMPOSITIONS AND METHODS OF USE” (Caraway Therapeutics, Inc., priority 2021, published 2025):
pEC50: −log10 of the molar value.

Columns and labels:
[1] = target: TRPML1 (Homo sapiens, UniProt Q9GZU1); experiment: Fluorescent TRPML1 assay (Fluo4-AM calcium fluorescence in doxycycline-induced HEK-293 Trex cells); type: cell-based
In short: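 EC50 values come from non-linear regression of percent activity, normalized to on-plate positive and negative controls, with fluorescence read at 480 nm excitation and 540 nm emission. Fluo4-AM-loaded (1 µM) doxycycline-induced HEK-293 Trex cells expressing mutated human TRPML1 were exposed in 10 mM calcium Ringer's to 6 nM–20 µM compound, in triplicate.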

[2] = target: T1, TRPML2 (Homo sapiens, UniProt Q8IZK6); experiment: Fluorescent TRPML2 assay (performed as for TRPML1, substituting the TRPML2 subtype); type: cell-based
T1 construct: expressed in transfected cells
T1 sequence (Q8IZK6 1-566): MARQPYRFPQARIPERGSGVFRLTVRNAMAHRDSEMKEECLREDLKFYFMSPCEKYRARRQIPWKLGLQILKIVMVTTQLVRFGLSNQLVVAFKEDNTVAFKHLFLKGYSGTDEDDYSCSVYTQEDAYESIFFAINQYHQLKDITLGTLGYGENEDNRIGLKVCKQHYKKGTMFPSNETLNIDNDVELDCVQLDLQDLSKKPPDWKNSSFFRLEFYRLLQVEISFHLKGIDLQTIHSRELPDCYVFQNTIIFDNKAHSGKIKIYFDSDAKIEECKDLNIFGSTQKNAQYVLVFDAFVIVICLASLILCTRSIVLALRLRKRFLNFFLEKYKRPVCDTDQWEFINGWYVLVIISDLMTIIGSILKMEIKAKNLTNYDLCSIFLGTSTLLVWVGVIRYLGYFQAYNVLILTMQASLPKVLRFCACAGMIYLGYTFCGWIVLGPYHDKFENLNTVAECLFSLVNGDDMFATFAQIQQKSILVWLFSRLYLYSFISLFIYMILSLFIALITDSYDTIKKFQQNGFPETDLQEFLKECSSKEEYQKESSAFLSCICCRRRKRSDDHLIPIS
In short: (§1)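 Calcium-influx readout: Fluo4 fluorescence at 480/540 nm, normalised to positive and negative controls per plate, EC50 fitted by non-linear regression. Cells were HEK-293 Trex stable lines, channel expression induced overnight with 0.5 ug/mL doxycycline; tested at 20 micromolar down to 6 nanomolar final, half-log steps, triplicate.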

[3] = target: T2, TRPML3 (Homo sapiens, UniProt Q8TDD5); experiment: Fluorescent TRPML3 assay (performed as for TRPML1, substituting the TRPML3 subtype); type: cell-based
T2 construct: expressed in transfected cells
T2 sequence (Q8TDD5 1-553): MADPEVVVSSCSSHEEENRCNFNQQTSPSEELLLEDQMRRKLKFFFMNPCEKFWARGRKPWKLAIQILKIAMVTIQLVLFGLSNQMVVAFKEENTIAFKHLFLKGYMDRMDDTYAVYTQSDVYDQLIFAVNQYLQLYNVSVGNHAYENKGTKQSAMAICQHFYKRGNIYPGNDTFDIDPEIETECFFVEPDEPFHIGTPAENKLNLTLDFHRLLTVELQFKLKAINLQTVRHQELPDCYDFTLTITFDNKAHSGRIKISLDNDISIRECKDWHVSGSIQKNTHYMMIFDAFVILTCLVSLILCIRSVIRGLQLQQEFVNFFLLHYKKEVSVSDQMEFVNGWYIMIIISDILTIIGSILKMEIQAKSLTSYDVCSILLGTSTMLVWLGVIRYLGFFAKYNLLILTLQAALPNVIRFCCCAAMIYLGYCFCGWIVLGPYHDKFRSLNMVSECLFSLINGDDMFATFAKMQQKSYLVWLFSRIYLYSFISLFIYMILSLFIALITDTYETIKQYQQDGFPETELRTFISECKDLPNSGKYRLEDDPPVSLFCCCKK
In short: as §1

[4] = tested on: TRPML1; settings: cited from earlier work

TRPML1 (Homo sapiens, UniProt Q9GZU1), sequence (Q9GZU1 whole entry L15A/L16A/L577A/L578A, form open): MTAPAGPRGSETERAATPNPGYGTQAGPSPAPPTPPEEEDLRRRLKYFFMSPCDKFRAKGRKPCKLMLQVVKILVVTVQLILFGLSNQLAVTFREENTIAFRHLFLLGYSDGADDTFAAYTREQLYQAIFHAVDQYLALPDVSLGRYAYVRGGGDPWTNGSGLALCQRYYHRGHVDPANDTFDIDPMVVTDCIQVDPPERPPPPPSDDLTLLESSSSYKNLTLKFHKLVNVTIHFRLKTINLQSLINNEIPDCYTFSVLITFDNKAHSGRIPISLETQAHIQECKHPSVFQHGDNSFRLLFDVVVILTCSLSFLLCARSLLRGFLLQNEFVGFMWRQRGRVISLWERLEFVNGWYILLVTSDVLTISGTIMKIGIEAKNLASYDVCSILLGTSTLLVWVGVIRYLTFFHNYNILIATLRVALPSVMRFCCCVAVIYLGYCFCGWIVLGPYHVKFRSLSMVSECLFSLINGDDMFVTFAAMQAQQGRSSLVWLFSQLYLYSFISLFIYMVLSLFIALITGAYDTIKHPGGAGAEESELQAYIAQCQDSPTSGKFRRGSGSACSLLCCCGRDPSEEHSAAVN

Row | Compound | pEC50 [1] | pEC50 [2] | pEC50 [3] | [Ca2+] increases ([4]; HEK293 cells stably or transiently expressing TRPML1 with its lysosomal targeting sequence deleted) | concentration needed to effectively activate TRPMLs ([4]; TRPMLs, high concentrations needed) [µM]
1 | Cc1cn(-c2cc(F)ccn2)c2ccnc(N3C[C@@H](C)N(C(=O)OC(C)(C)C)C[C@@H]3C)c12 [Compound 701, tert-butyl (2R,5S)-4-(1-(4-fluoropyridin-2-yl)-3-methyl-1H-pyrrolo[3,2-c]pyridin-4-yl)-2,5-dimethylpiperazine-1-carboxylate] | > 7.00 | < 5.70 | 6.30 to 7.00 | – | –
2 | Cc1cn(-c2cc(C(F)(F)F)ccn2)c2ccnc(N3C[C@@H](C)N(C(=O)OC(C)(C)C)C[C@@H]3C)c12 [Compound 702, tert-butyl (2R,5S)-2,5-dimethyl-4-(3-methyl-1-(4-(trifluoromethyl)pyridin-2-yl)-1H-pyrrolo[3,2-c]pyridin-4-yl)piperazine-1-carboxylate] | > 7.00 | 5.70 to 6.30 | 5.70 to 6.30 | – | –
3 | C[C@H]1CN(C(=O)OC(C)(C)C)CCN1c1nccc2c1c(-c1ccccc1F)cn2-c1cccc(F)c1 [Compound 703, tert-butyl (S)-4-(3-(2-fluorophenyl)-1-(3-fluorophenyl)-1H-pyrrolo[3,2-c]pyridin-4-yl)-3-methylpiperazine-1-carboxylate] | > 7.00 | > 7.00 | > 7.00 | – | –
4 | C[C@@H]1CN(c2nccc3c2c(C2CC2)cn3-c2cccc(F)c2)CCN1C(=O)OC(C)(C)C [Compound 704, tert-butyl (R)-4-(3-cyclopropyl-1-(3-fluorophenyl)-1H-pyrrolo[3,2-c]pyridin-4-yl)-2-methylpiperazine-1-carboxylate] | > 7.00 | > 7.00 | > 7.00 | – | –
5 | Cc1cn(-c2cc(C#N)ccn2)c2ccnc(N3C[C@@H](C)N(C(=O)OC(C)(C)C)C[C@@H]3C)c12 [Compound 705, tert-butyl (2R,5S)-4-(1-(4-cyanopyridin-2-yl)-3-methyl-1H-pyrrolo[3,2-c]pyridin-4-yl)-2,5-dimethylpiperazine-1-carboxylate] | > 7.00 | 5.70 to 6.30 | > 7.00 | – | –
6 | C[C@H]1CN(C(=O)OC(C)(C)C)CCN1c1nccc2c1c(C1CCC1)cn2-c1cccc(F)c1 [Compound 706, tert-butyl (S)-4-(3-cyclobutyl-1-(3-fluorophenyl)-1H-pyrrolo[3,2-c]pyridin-4-yl)-3-methylpiperazine-1-carboxylate] | 6.30 to 7.00 | 5.70 to 6.30 | 6.30 to 7.00 | – | –
7 | [2H]C([2H])([2H])[C@@H]1CN(c2ncnc3c2c(C(F)(F)F)cn3-c2cc(C#N)ccn2)[C@@H](C)CN1C(=O)OC(C)(C)C [Compound 707, tert-butyl (2R,5S)-4-(7-(4-cyanopyridin-2-yl)-5-(trifluoromethyl)-7H-pyrrolo[2,3-d]pyrimidin-4-yl)-5-methyl-2-(methyl-d3)piperazine-1-carboxylate] | > 7.00 | > 7.00 | > 7.00 | – | –
8 | CC(C)(C)OC(=O)N1CCN(c2ncnc3c2c(C(F)(F)F)cn3-c2cc(C#N)ccn2)CC1 [Compound 708, tert-butyl 4-(7-(4-cyanopyridin-2-yl)-5-(trifluoromethyl)-7H-pyrrolo[2,3-d]pyrimidin-4-yl)piperazine-1-carboxylate] | 5.70 to 6.30 | 5.70 to 6.30 | 5.70 to 6.30 | – | –
9 | [2H]C([2H])([2H])[C@@H]1CN(c2ncnc3c(-c4cc(C#N)ccn4)cn(-c4ccccc4F)c23)[C@@H](C)CN1C(=O)OC(C)(C)C [Compound 709, tert-butyl (2R,5S)-4-(7-(4-cyanopyridin-2-yl)-5-(2-fluorophenyl)-5H-pyrrolo[3,2-d]pyrimidin-4-yl)-5-methyl-2-(methyl-d3)piperazine-1-carboxylate] | > 7.00 | > 7.00 | > 7.00 | – | –
10 | C[C@@H]1CN(c2ncnc3c2c(C2CCC2)cn3-c2cc(C#N)ccn2)[C@@H](C)CN1C(=O)OC(C)(C)C [Compound 710, tert-butyl (2R,5S)-4-(7-(4-cyanopyridin-2-yl)-5-cyclobutyl-7H-pyrrolo[2,3-d]pyrimidin-4-yl)-2,5-dimethylpiperazine-1-carboxylate] | > 7.00 | 6.30 to 7.00 | > 7.00 | – | –
11 | [2H]C([2H])([2H])[C@@H]1CN(c2ncnc3c2c(C2CC2)cn3-c2cc(C#N)ccn2)[C@@H](C)CN1C(=O)OC(C)(C)C [Compound 711, tert-butyl (2R,5S)-4-(7-(4-cyanopyridin-2-yl)-5-cyclopropyl-7H-pyrrolo[2,3-d]pyrimidin-4-yl)-5-methyl-2-(methyl-d3)piperazine-1-carboxylate] | > 7.00 | 5.70 to 6.30 | 6.30 to 7.00 | – | –
12 | [2H]C([2H])([2H])[C@@H]1CN(c2ncnc3c2c(-c2ccccc2F)cn3-c2cc(C#N)ccn2)[C@@H](C)CN1C(=O)OC(C)(C)C [Compound 712, tert-butyl (2R,5S)-4-(7-(4-cyanopyridin-2-yl)-5-(2-fluorophenyl)-7H-pyrrolo[2,3-d]pyrimidin-4-yl)-5-methyl-2-(methyl-d3)piperazine-1-carboxylate] | > 7.00 | > 7.00 | > 7.00 | – | –
13 | C#Cc1ccnc(-n2cc(C3CC3)c3c(N4C[C@@H](C)N(C(=O)OC(C)(C)C)C[C@@H]4C)ncnc32)c1 [Compound 715, tert-butyl (2R,5S)-4-(5-cyclopropyl-7-(4-ethynylpyridin-2-yl)-7H-pyrrolo[2,3-d]pyrimidin-4-yl)-2,5-dimethylpiperazine-1-carboxylate] | > 7.00 | > 7.00 | > 7.00 | – | –
14 | C#Cc1ccnc(-n2cc(C(F)(F)F)c3c(N4C[C@@H](C)N(C(=O)OC(C)(C)C)C[C@@H]4C)ncnc32)c1 [Compound 716, tert-butyl (2R,5S)-4-(7-(4-ethynylpyridin-2-yl)-5-(trifluoromethyl)-7H-pyrrolo[2,3-d]pyrimidin-4-yl)-2,5-dimethylpiperazine-1-carboxylate] | 6.30 to 7.00 | 5.70 to 6.30 | 6.30 to 7.00 | – | –
15 | CCc1ccnc(-n2cc(C3CC3)c3c(N4C[C@@H](C)N(C(=O)OC(C)(C)C)C[C@@H]4C)ncnc32)c1 [Compound 717, tert-butyl (2R,5S)-4-(5-cyclopropyl-7-(4-ethylpyridin-2-yl)-7H-pyrrolo[2,3-d]pyrimidin-4-yl)-2,5-dimethylpiperazine-1-carboxylate] | > 7.00 | 6.30 to 7.00 | > 7.00 | – | –
16 | CCc1ccnc(-n2cc(C(F)(F)F)c3c(N4C[C@@H](C)N(C(=O)OC(C)(C)C)C[C@@H]4C)ncnc32)c1 [Compound 718, tert-butyl (2R,5S)-4-(7-(4-ethylpyridin-2-yl)-5-(trifluoromethyl)-7H-pyrrolo[2,3-d]pyrimidin-4-yl)-2,5-dimethylpiperazine-1-carboxylate] | 6.30 to 7.00 | 5.70 to 6.30 | 6.30 to 7.00 | – | –
17 | ML-SA1 | – | – | – | significant [Ca2+] increases | ~10
